Measurements published in US10125100B2, “Kinase inhibitors” (Respivert Limited, priority 2014, dated 2018).

Tested on: Jurkat cells
Test: (r) Cell cytotoxicity assay
Format: cell-based, human
Settings: 24 hours
Description: 1×10^5 Jurkat cells (immortalised human T lymphocytes) are added to the appropriate number of wells of a 96 well plate in 100 μL of media (RPMI supplemented with 10% foetal bovine serum). 1 μL of DMSO control (final concentration 1.0% v/v) or test compound (final concentration 20, 5 or 1 μg/mL) is added to the wells and incubated at 37° C., 5% CO2. After 24 hours, the plate is centrifuged at 1200 rpm for 3 minutes and the supernatant discarded. Cells are then resuspended in 150 μL (final concentration 7.5 μg/mL) of propidium iodide (PI) in PBS and incubated at 37° C., 5% CO2 for 15 minutes. After 15 minutes, cells are analysed by flow cytometry (BD accuri) using the FL3 window. The % viability is calculated as the % of cells that are PI negative in the test wells normalised to the DMSO control.

SMILES	% Viability at 1 μg/mL	% Viability at 5 μg/mL	% Viability at 20 μg/mL
COc1cc(Nc2cc(Oc3ccc(NC(=O)Nc4cc(C(C)(C)C)cc(NS(C)(=O)=O)c4OC)c4ccccc34)ccn2)ccc1-c1nn[nH]n1 [Example 24, N-(5-(tert-Butyl)-2-methoxy-3-(3-(4-((2-((3-methoxy-4-(2H-tetrazol-5-yl)phenyl)amino)pyridin-4-yl)oxy)naphthalen-1-yl)ureido)phenyl)methanesulfonamide]	104.3%	92.4%	9.7%
COc1cc(Nc2cc(Oc3ccc(NC(=O)Nc4cc(C(C)(C)C)cc(NS(C)(=O)=O)c4OC)c4ccccc34)ccn2)ccc1C(=O)NCCN1CCN(C(=O)CCC(=O)O)CC1 [17(ck), 4-(4-(2-(4-((4-((4-(3-(5-(tert-Butyl)-2-methoxy-3-(methylsulfonamido)phenyl)ureido)-naphthalen-1-yl)oxy)pyridin-2-yl)amino)-2-methoxybenzamido)ethyl)piperazin-1-yl)-4-oxobutanoic acid]	96.1%	96.1%	95.5%
CCN1CCN(CCNC(=O)c2ccc(Nc3cc(Oc4ccc(NC(=O)Nc5cc(C(C)(C)C)cc(NS(C)(=O)=O)c5OC)c5ccccc45)ccn3)cc2OC)CC1 [17(be), 4-((4-((4-(3-(5-(tert-Butyl)-2-methoxy-3-(methylsulfonamido)phenyl)ureido)naphthalen-1-yl)oxy)pyridin-2-yl)amino)-N-(2-(4-ethylpiperazin-1-yl)ethyl)-2-methoxybenzamide]	92.4%	0.7%	0.5%
COc1cc(Nc2cc(Oc3ccc(NC(=O)Nc4cc(C(C)(C)C)cc(NS(C)(=O)=O)c4OC)c4ccccc34)ccn2)ccc1C(=O)NCCCCCN(C)C [17(bd), 4-((4-((4-(3-(5-(tert-Butyl)-2-methoxy-3-(methylsulfonamido)phenyl)ureido)naphthalen-1-yl)oxy)pyridin-2-yl)amino)-N-(5-(dimethylamino)pentyl)-2-methoxybenzamide]	85.8%	28.7%	0.1%
COc1cc(Nc2cc(Oc3ccc(NC(=O)Nc4cc(C(C)(C)C)cc(NS(C)(=O)=O)c4OC)c4ccccc34)ccn2)ccc1C(=O)NCCOCCOCCC(=O)O [17(x), 3-[2-[2-[[4-[[4-[[4-[[5-tert-butyl-3-(methanesulfonamido)-2-methoxyphenyl]carbamoyl-amino]-1-naphthyl]oxy]-2-pyridyl]amino]-2-methoxy-benzoyl]amino]ethoxy]ethoxy]propanoic acid]	95.4%	94.2%	38.9%
COc1cc(Nc2nccc(Oc3ccc(NC(=O)Nc4cc(C(C)(C)C)cc(NS(C)(=O)=O)c4OC)c4ccccc34)n2)cc(OC)c1C(=O)NCCN1CCN(C)CC1 [17(az), 4-((4-((4-(3-(5-(tert-Butyl)-2-methoxy-3-(methylsulfonamido)phenyl)ureido)naphthalen-1-yl)oxy)pyrimidin-2-yl)amino)-2,6-dimethoxy-N-(2-(4-methylpiperazin-1-yl)ethyl)benzamide]	105.4%	93.1%	4.5%
COc1c(NC(=O)Nc2ccc(Oc3ccnc(Nc4ccc(C(=O)NCCCN5CCOCC5)c(O)c4)c3)c3ccccc23)cc(C(C)(C)C)cc1NS(C)(=O)=O [Example 29, 4-((4-((4-(3-(5-(tert-Butyl)-2-methoxy-3-(methylsulfonamido)phenyl)ureido)naphthalen-1-yl)oxy)pyridin-2-yl)amino)-2-hydroxy-N-(3-morpholinopropyl)benzamide]	101.2%	46.6%	2.0%
COc1cc(Nc2cc(Oc3ccc(NC(=O)Nc4cc(C(C)(C)C)cc(NS(C)(=O)=O)c4OC)c4ccccc34)ccn2)ccc1C(=O)NCC(=O)O [17(ar), 2-(4-((4-((4-(3-(5-(tert-Butyl)-2-methoxy-3-(methylsulfonamido)phenyl)ureido)naphthalen-1-yl)oxy)pyridin-2-yl)amino)-2-methoxybenzamido)acetic acid]	96.1%	96.2%	95.3%
COc1cc(Nc2cc(Oc3ccc(NC(=O)Nc4cc(C(C)(C)C)cc(NS(C)(=O)=O)c4OC)c4ccccc34)ccn2)ccc1C(=O)NCCN1CCN(C(C)C)CC1 [17(bf), 4-((4-((4-(3-(5-(tert-Butyl)-2-methoxy-3-(methylsulfonamido)phenyl)ureido)naphthalen-1-yl)oxy)pyridin-2-yl)amino)-N-(2-(4-isopropylpiperazin-1-yl)ethyl)-2-methoxybenzamide]	90.7%	1.5%	0.6%
COc1cc(Nc2nccc(Oc3ccc(NC(=O)Nc4cc(C(C)(C)C)cc(NS(C)(=O)=O)c4OC)c4ccccc34)n2)ccc1C(=O)NCCOCCOCCO [17(by), 4-((4-((4-(3-(5-(tert-Butyl)-2-methoxy-3-(methylsulfonamido)phenyl)ureido)naphthalen-1-yl)oxy)pyrimidin-2-yl)amino)-N-(2-(2-(2-hydroxyethoxy)ethoxy)ethyl)-2-methoxybenzamide]	102.4%	81.5%	1.6%
COc1cc(Nc2cc(Oc3ccc(NC(=O)Nc4cc(C(C)(C)C)cc(NS(C)(=O)=O)c4OC)c4ccccc34)ccn2)ccc1C(=O)N(C)CCN1CCN(C)CC1 [17(bh), 4-((4-((4-(3-(5-(tert-Butyl)-2-methoxy-3-(methylsulfonamido)phenyl)ureido)naphthalen-1-yl)oxy)pyridin-2-yl)amino)-2-methoxy-N-methyl-N-(2-(4-methylpiperazin-1-yl)ethyl)benzamide]	99.5%	67.8%	0.6%
CCC(=O)NS(=O)(=O)c1ccc(Nc2nccc(Oc3ccc(NC(=O)Nc4cc(C(C)(C)C)cc(NS(C)(=O)=O)c4OC)c4ccccc34)n2)cc1OC [17(bk), N-((4-((4-((4-(3-(5-(tert-Butyl)-2-methoxy-3-(methylsulfonamido)phenyl)ureido)-naphthalen-1-yl)oxy)pyrimidin-2-yl)amino)-2-methoxyphenyl)sulfonyl)propionamide]	93.0%	71.8%	65.6%
COc1cc(Nc2cc(Oc3ccc(NC(=O)Nc4cc(C(C)(C)C)cc(NS(C)(=O)=O)c4OC)c4ccccc34)ccn2)ccc1C(=O)NCCC1(O)CCN(C)CC1 [17(bg), 4-((4-((4-(3-(5-(tert-Butyl)-2-methoxy-3-(methylsulfonamido)phenyl)ureido)naphthalen-1-yl)oxy)pyridin-2-yl)amino)-N-(2-(4-hydroxy-1-methylpiperidin-4-yl)ethyl)-2-methoxy benzamide]	86.5%	60.0%	0.3%
COc1cc(Nc2cc(Oc3ccc(NC(=O)Nc4cc(C(C)(C)C)cc(NS(C)(=O)=O)c4OC)c4ccccc34)ccn2)cc(OC)c1C(=O)NCC1CCN(C)CC1 [17(ca), 4-((4-((4-(3-(5-(tert-Butyl)-2-methoxy-3-(methylsulfonamido)phenyl)ureido)naphthalen-1-yl)oxy)pyridin-2-yl)amino)-2,6-dimethoxy-N-((1-methylpiperidin-4-yl)methyl)benzamide]	92.6%	94.0%	75.8%
